Here are results for three molecules from patent US20220008411A1, “TOLL-LIKE RECEPTOR 7 OR 8 AGONIST-CHOLESTEROL COMPLEX AND METHOD OF PREPARING SAME” (RESEARCH & BUSINESS FOUNDATION SUNGKYUNKWAN UNIVERSITY, priority 2019, published 2022).

The subject of data set [1] is bone marrow-derived dendritic cells (BMDCs) or bone marrow-derived macrophages (BMDMs). In words: activation of immune cells, cleavable vs uncleavable complex (ELISA). Format: cell-based. The note with it: given as liposome, 24 hours. As to the method: Degree of activation of immune cells was confirmed using the cholesterol-resiquimod complex, in which cholesterol is not cleaved at a specific point of time as a control. […] In addition, a liquid culture was obtained, centrifuged at 490 g for 5 minutes, thereby obtaining only a supernatant, and ELISA was carried out using a BD OptEIA™ kit.
A general note: An ELISA detects its analyte on a solid surface through an enzyme-linked reagent.

The subject of a further data set is carboxylesterase. To be noted: nanoliposome, 30 units of carboxylesterase, 37° C.
The nature of data set [2]: toxicity in vivo (serum cytokine, body weight). More on the design: species or system C57BL/6 mouse. To be noted: 25 μg/100 μL subcutaneous. How it is done: In addition, the collected blood was centrifuged (4° C., 13,000 rpm, 20 min) to separate serum and blood cells, and a cytokine amount was measured through ELISA using the serum.
For data set [3], the system named is B16-OVA melanoma cell line. In words: anticancer effect with OVA antigen in B16-OVA melanoma model. To be noted: intratumoral injection on day 0, 3, 6 and 9.
Method: More specifically, 5×10^5 cells of a B16-OVA cell line were subcutaneously injected into the right flank of a C57BL/6 mouse, and the time when a tumor size reached approximately 50 mm^3 was set to day 0, each of phosphate-buffered saline (control), an OVA antigen (OVA), resiquimod+OVA antigen (R848+OVA), and a nanoliposome including a cholesterol-resiquimod complex, +OVA antigen (Lipo(Chol-R848)+OVA) were administered into a mouse through intratumoral injection on day 0, 3, 6 and 9. 10 μg of the OVA antigen was administered, 25 μg of resiquimod was administered, and 25 μg (based on resiquimod) of the nanoliposome including the cholesterol-resiquimod complex was administered. In addition, a mouse survival rate and a cancer size were measured.

In the case of `CCOCc1nc2c(NC(=O)OC3CCC4(C)C(=CCC5C4CCC4(C)C(C(C)CCCC(C)C)CCC54)C3)nc3ccccc3c2n1CC(C)(C)O` (stereo not drawn) [Chol-R848, cholesterol-conjugated resiquimod], the “activation of immune cells” value in data set [1] was “effectively activates immune cells”. In the data set with carboxylesterase, the “cholesterol cleavage by enzyme” value is “cleaved”.

For the molecule `CCOCc1nc2c(N)nc3ccccc3c2n1CC(C)(C)O` [resiquimod], in data set [2], the body weight result was “dramatically changing a body weight” and the “cytokine amount in serum” value is listed as “rapidly increased in serum at an early stage”.

B1: OVA antigen: ovalbumin (OVA) antigen (protein, UniProt P01012 2-386, looked up)
Ovalbumin: GSIGAASMEFCFDVFKELKVHHANENIFYCPIAIMSALAMVYLGAKDSTRTQINKVVRFDKLPGFGDSIEAQCGTSVNVHSSLRDILNQITKPNDVYSFSLASRLYAEERYPILPEYLQCVKELYRGGLEPINFQTAADQARELINSWVESQTNGIIRNVLQPSSVDSQTAMVLVNAIVFKGLWEKAFKDEDTQAMPFRVTEQESKPVQMMYQIGLFRVASMASEKMKILELPFASGTMSMLVLLPDEVSGLEQLESIINFEKLTEWTSSNVMEERKIKVYLPRMKMEEKYNLTSVLMAMGITDVFSSSANLSGISSAESLKISQAVHAAHAEINEAGREVVGSAEAGVDAASVSEEFRADHPFLFCIKHIATNAVLFFGRCVSP
Turning to B1, the mouse survival result in data set [3] is “no mouse surviving three weeks or more”. Moreover, in data set [3] (10 μg OVA, 25 μg resiquimod basis), the cancer size result is on record as “dramatically increased”.
